Columns and labels:
Conditions in all cases: incubation time: 72 h
CAL-85-1 [1] = assay: normalised response (% of control), CellTiter-Glo; higher = more viable cells (100 = DMSO, 0 = benzethonium chloride kill control)
Procedure: (§1)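 DSRT, 72 h incubation, CellTox Green / CellTiter-Glo readout. Signal is normalised to DMSO and benzethonium chloride controls. Value is the normalised response at dose 3.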

BT-474 [2] = assay: as above
Procedure: as §1

MDA-MB-453 [3] = assay: as above
Procedure: as §1

Hs578T [4] = assay: as above
Procedure: as §1

MCF-10A [5] = assay: as above
Procedure: as §1

CAL-51 [6] = assay: as above
Procedure: as §1

CAL-148 [7] = assay: as above
Procedure: as §1

MDA-MB-231 [8] = assay: as above
Procedure: as §1

BT-549 [9] = assay: as above
Procedure: as §1

DU-4475 [10] = assay: as above
Procedure: as §1

CAL-120 [11] = assay: as above
Procedure: as §1

MDA-MB-468 [12] = assay: as above
Procedure: as §1

HDQ-P1 [13] = assay: as above
Procedure: as §1

MDA-MB-436 [14] = assay: as above
Procedure: as §1

HCC1599 [15] = assay: as above
Procedure: as §1

SK-BR-3 = assay: as above
Procedure: as §1

HCC1143 [16] = assay: as above
Procedure: as §1

HCC1937 [17] = assay: as above
Procedure: as §1

MFM-223 [18] = assay: as above
Procedure: as §1

CAL-85-1 [19] = assay: normalised response (% of control), CellTox Green; higher = less cell death (100 = DMSO, 0 = benzethonium chloride kill control)
Procedure, shortened: (§2)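 Breast cancer cell lines in 20 µl suspension were added to 384-well plates containing compound at 5 concentrations, spaced in 10-fold steps across a 10,000-fold range chosen for each compound, and incubated for 72 h. CellTox Green fluorescence was read at 485/520 nm, followed by CellTiter-Glo luminescence after 10 min at room temperature. Signals on each plate were normalised so that 0.1 % DMSO equals 100 and a positive kill control equals 0. Every value in the table is the normalised signal at one concentration of the series.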

BT-474 [20] = assay: as above
Procedure, shortened: as §2

MDA-MB-453 [21] = assay: as above
Procedure, shortened: as §2

Hs578T [22] = assay: as above
Procedure, shortened: as §2

MCF-10A [23] = assay: as above
Procedure, shortened: as §2

CAL-51 [24] = assay: as above
Procedure, shortened: as §2

CAL-148 [25] = assay: as above
Procedure, shortened: as §2

MDA-MB-231 [26] = assay: as above
Procedure, shortened: as §2

BT-549 [27] = assay: as above
Procedure, shortened: as §2

DU-4475 [28] = assay: as above
Procedure, shortened: as §2

CAL-120 [29] = assay: as above
Procedure, shortened: as §2

HDQ-P1 [30] = assay: as above
Procedure, shortened: as §2

MDA-MB-436 [31] = assay: as above
Procedure, shortened: as §2

HCC1599 [32] = assay: as above
Procedure, shortened: as §2

HCC1937 [33] = assay: as above
Procedure, shortened: as §2

MFM-223 [34] = assay: as above
Procedure, shortened: as §2

MDA-MB-468 [35] = assay: as above
Procedure, shortened: as §2

HCC1143 [36] = assay: as above
Procedure, shortened: as §2

| Compound | normalised response (CAL-85-1 [1]) [%] | normalised response (BT-474 [2]) [%] | normalised response (MDA-MB-453 [3]) [%] | normalised response (Hs578T [4]) [%] | normalised response (MCF-10A [5]) [%] | normalised response (CAL-51 [6]) [%] | normalised response (CAL-148 [7]) [%] | normalised response (MDA-MB-231 [8]) [%] | normalised response (BT-549 [9]) [%] | normalised response (DU-4475 [10]) [%] | normalised response (CAL-120 [11]) [%] | normalised response (MDA-MB-468 [12]) [%] | normalised response (HDQ-P1 [13]) [%] | normalised response (MDA-MB-436 [14]) [%] | normalised response (HCC1599 [15]) [%] | normalised response (SK-BR-3) [%] | normalised response (HCC1143 [16]) [%] | normalised response (HCC1937 [17]) [%] | normalised response (MFM-223 [18]) [%] | normalised response (CAL-85-1 [19]) [%] | normalised response (BT-474 [20]) [%] | normalised response (MDA-MB-453 [21]) [%] | normalised response (Hs578T [22]) [%] | normalised response (MCF-10A [23]) [%] | normalised response (CAL-51 [24]) [%] | normalised response (CAL-148 [25]) [%] | normalised response (MDA-MB-231 [26]) [%] | normalised response (BT-549 [27]) [%] | normalised response (DU-4475 [28]) [%] | normalised response (CAL-120 [29]) [%] | normalised response (HDQ-P1 [30]) [%] | normalised response (MDA-MB-436 [31]) [%] | normalised response (HCC1599 [32]) [%] | normalised response (HCC1937 [33]) [%] | normalised response (MFM-223 [34]) [%] | normalised response (MDA-MB-468 [35]) [%] | normalised response (HCC1143 [36]) [%] |
| --- | --- | --- | --- | --- | --- | --- | --- | --- | --- | --- | --- | --- | --- | --- | --- | --- | --- | --- | --- | --- | --- | --- | --- | --- | --- | --- | --- | --- | --- | --- | --- | --- | --- | --- | --- | --- | --- |
| Cc1ccc(C(=O)N(CCCN)[C@@H](c2oc3cc(Cl)ccc3c(=O)c2Cc2ccccc2)C(C)C)cc1 (1 nM) | 107 | 95 | 91.4 | 94.8 | 97 | 65.8 | 84.9 | 103 | 101 | 96.6 | 102 | 93.9 | 105 | 105 | 104 | 88.2 | 103 | 94.3 | 91.4 | 113 | 101 | 104 | 104 | 107 | 74.1 | 93.5 | 102 | 93.7 | 103 | 83.7 | 100 | 108 | 88.1 | 97 | 100 | – | – |
| NC(=O)Nc1cc(-c2cccc(F)c2)sc1C(=O)N[C@H]1CCCNC1 [AZD7762] (10 nM) | 97.5 | 105 | 81.9 | 94.5 | 99.5 | 106 | 106 | 104 | 101 | 102 | 106 | 102 | 94 | 104 | 91.3 | 103 | 110 | 95 | 103 | 100 | 101 | 105 | – | 102 | 113 | 96 | 104 | 96.5 | 99.5 | 99.8 | 108 | 91 | 116 | 107 | 104 | 104 | 105 |
| CO[C@H]1/C=C\C=C(/C)C(=O)NC2=CC(=O)C(NCCN(C)C)=C(C[C@@H](C)C[C@H](OC)[C@H](O)[C@@H](C)/C=C(\C)[C@@H]1OC(N)=O)C2=O [Alvespimycin] (10 nM) | 104 | 104 | 89.1 | 103 | 115 | 101 | 110 | 106 | 63.4 | 103 | 106 | 94.8 | 89.5 | 76.8 | 106 | 72.3 | 99 | 94.8 | 88.1 | 95.8 | 93.9 | 96.9 | – | 94.8 | 110 | 108 | 85.3 | 89.8 | 101 | 97.3 | 90.8 | 89.8 | 111 | 118 | 104 | 116 | 105 |
| N.N.[Cl][Pt][Cl] [Cisplatin] (10 nM) | 94.7 | 102 | 90.5 | 96.4 | 106 | 90.6 | 82.8 | 103 | 107 | 96.6 | 108 | 85.3 | 101 | 103 | 104 | 93.5 | 103 | 97.7 | 99.8 | 112 | 104 | 106 | 78.4 | 115 | 94.8 | 103 | 114 | 115 | 114 | 108 | 109 | – | 102 | 90.6 | 105 | – | 109 |

Source: the supplement of paper PMC4862054
